Laboratory results from US10390536B2, “Methods, compounds and compositions for repelling insects and/or arachnids” (National Center for Scientific Research “Demokritos”, priority 2013, dated 2019).
Where two headings read alike, the source gives them in different places.

Key:
[1] = system: Anopheles gambiae (Giles) ss strain 16CSS female mosquitoes; test: warm body repellence assay (mosquito landings); assay type: in vivo; conditions: for repellent activity in the warm body assay (in words): candidate compounds, initially 1.0-5.0 μg/cm^2 (about 5-31.5 nmole/cm^2); for median repellency (%) at 20 nmol/cm2: read-out: Median Repellency (%)
Protocol: To test the behavior of female mosquitoes to an essential oil containing OBP binding components, a previously described repellence assay [Kröber et al. (2010). An In Vitro Assay for Testing Mosquito Repellents Employing a Warm Body and Carbon Dioxide as a Behavioral Activator. Journal of the American Mosquito Control Association 26(4) 381-386] was conducted that measures the number of mosquito landings on a warm surface onto which an essential oil containing at least one candidate compound was applied.
To conduct a repellency assay, a selected essential oil or ethanol negative control was applied to a warm body at a dose of about 3.8 μg/cm^2 and allowed to dry for 40 seconds in order to allow evaporation of the solvent before introduction into the test cage with mosquitoes. As positive control for repellence, DEET dissolved in ethanol was applied to the warm body at the same dose. The treated warm body in conjunction with a pulse of carbon dioxide was introduced into the test cage containing fifty Anopheles gambiae (Giles) ss strain 16CSS female mosquitoes that were 4-11 days old and the number of mosquito landings on the warm body occurring within a 2-minute period was counted. Each candidate compound was tested in five different cages (i.e., 250 female mosquitoes) in a randomized design, and the ethanol control and up to four candidate compounds were tested in each cage. Raw data on numbers of landings by mosquitoes were analyzed using a linear mixed model accounting for treatment, experimental day, the individual cage, the number of females per cage and the level of the carbon dioxide pulse in ppm using R (R Development Core Team, 2010) and the packages LME4 (Bates and Maechler, Ime4: Linear mixed-effects models using {S4} classes.{R} package version 0.999375-32, 2009) and NLME (Pinheiro et al, nlme: Linear and Nonlinear Mixed Effects Models, 2010; the R Development Core Team, R: A Language and Environment for Statistical Computing, 2010). Repellent values were calculated from counted landings on treatments versus the overall landings on pooled controls.
To test the behavior of female mosquitoes to a candidate compound identified in Example 5, behavioral assays were made using the identified compounds. The repellent assay was performed as described in Example 3, except that candidate compounds were dissolved in ethanol and tested initially at doses between 1.0 and 5.0 μg/cm^2 (about 5-31.5 nmole/cm^2) and, whenever necessary, at lower and/or higher doses as well. Besides the compounds identified in Example 5, compounds related to these were also tested including ethyl-cinnamate and butyl-cinnamate (Table 4).
To test the behavior of female mosquitoes to various combinations of candidate compounds identified in Example 6, repellence assays were made as in Example 3. These repellent assays were made to compare the effectiveness of the strongest repellent compounds identified in Example 6, including, without limitation, carvacrol, ethyl cinnamate, butyl cinnamate, and cumin alcohol with that of DEET.
The doses tested were 2, 4, 6 10 and 20 nmol/cm^2 for the single compounds. The binary 50:50 mixtures were tested at 2, 6, 10 and 20 nmol/cm^2, with each compound making up half the amount tested, so that, for example, the 2 nmol/cm^2 concentration in column A+B represents 1 nmol/cm^2 of A and 1 nmol/cm^2 of B in a binary mixture. DEET was also tested at 25 nmol (top response) and carvacrol was tested at the additional dose of 2.5 nmol (second from left within its column). As an indication, DEET at 20 nmol/cm^2=3.8 μg/cm^2. Mosquitoes were activated using a puff of CO2 from a gas tank upon introduction of the warm body into the test cage containing 50±5 A. gambiae females and mosquito landings were counted for 2 minutes. Each treatment (dose) was tested using five test cages, i.e. on a total of 250 female A. gambiae. […]

[2] = system: female A. gambiae antennae; test: GC-coupled electroantennogram (GC-EAG) recording; design: species or system Anopheles gambiae; conditions: compounds eluting from GC of essential oils
From the text: Electrophysiological recordings from whole mosquito antenna: Coupling EAG recordings from an A. gambiae antenna to the effluent of a high-resolution gas chromatographic (GC) column permitted the determination of the elution profiles of biologically active components of essential oils showing repellence. Recordings were made from to 4-9 day-old female mosquitoes. The head was excised at the occipital opening and placed on the reference glass electrode containing Hayes mosquito Ringer [Hayes (1953). Determination of a physiological saline for Aedes aegypti (L.). J Econ Entomol 46: 624-627] mounted in a humidified air-stream (90-98% RH; Guerin and Visser (1980). Electroantennogram Responses of the Carrot Fly, Psila rosae, to Volatile Plant Components. Physiological Entomology 5(2): 111-119] and its antenna exposed to compounds eluting from the GC column (Biessamann et al. (2010). The Anopheles gambiae odorant binding protein 1 (AgamOBP1) mediates indole recognition in the antennae of female mosquitoes. PLoS One 5(3): e9471]. The EAG response was recorded via a glass electrode filled with Kaissling sensillum lymph Ringer [Kaissling (1995). Single unit and electroantennogram recordings in insect olfactory organs. In Experimental Cell Biology of Taste and Olfaction. Current Techniques and Protocols, Spielman AlaB, J. G. (ed), 361-386. Boca Raton, Fla.: CRC Press] brought into contact with the terminal antennal segment whose tip was cut off. Only antennae showing an EAG response at least double the noise level to a 1 ml puff of air over 1 μg geranylacetone in a 5 ml stimulus syringe were used for recording EAG responses to the essential oils.
To conduct a GC-EAG analysis, about 2 μg of an essential oil was injected in 1-3 μL of dichloromethane (DCM) onto an apolar capillary column (95% dimethyl polysiloxan with 5% diphenyl polysiloxan, 15 m long, 0.25 mm i.d., 0.10 μm film thickness; BGB Analytik, Switzerland) installed in a 5300 Carlo Erba Instruments chromatograph. Hydrogen was used as carrier gas with the oven held at 40° C. for 3 minutes then heated up 25° C./min to 230° C. and held at the final temperature for 15 min. The column effluent was split (50:50) between the flame ionization detector (FID) of the chromatograph and the mosquito antennal preparation. The EAG signal was fed into an AC/DC amplifier (×100) via a high impedance preamplifier (×10), recorded on the hard disk of a PC via a 16-bit analogue-digital IDAC4 interface (Syntech, Netherlands) and monitored simultaneously with an oscilloscope (Tektronix 5103, USA). Kovats retention indices (KIs) were calculated for the EAG-active compounds present in the extracts and fractions. FIG. 1 illustrates the results obtained using the GC-EAG analysis. […]

[3] = system: sand fly Lutzomyia longipalpis; test: warm body repellence assay with sand flies; assay type: in vivo; conditions: for Median of landings: 2 minutes, control 48
Protocol: To test the effects of repellent compounds or compositions disclosed herein on other blood-feeding arthropods, a warm body repellence assay (Krober et. al. (2010). An In Vitro Assay for Testing Mosquito Repellents Employing a Warm Body and Carbon Dioxide as a Behavioral Activator. Journal of the American Mosquito Control Association 26(4): 381-386] was conducted using the sand fly Lutzomyia longipalpis (Diptera: Psychodidae), the principal vector of Leishmania (or leismaniasis) in the Americas.
[…] Fifty L. longipalpis sandflies (male:female ratio 1:1) of 3-7 days old were tested during the scotophase under conditions described for A. gambiae in Example 6. The test cages were lined with filter paper. Reduction in the number of landings by L. longipalpis sand fly females on a warm body treated with different test products compared to the control with solvent (ethanol p.a.) alone was used to evaluate repellence. Tests were conducted in complete darkness using IR LEDs to illuminate the warm body. Landings counted during 2 minutes were normalized by experimental day, cage, and number of females by a mixed linear model before testing for differences.

[4] = Anopheles gambiae, 2 min, 20 nmole per cm^2

Compound	repellent activity in the warm body assay (in words) [1]	EAG response of antenna [2]	also measured
C=C(C)C1CC=C(C)C(=O)C1 (single isomer, unassigned; (+)) [(+) carvone, carvone]	only weak or no repellent activity at all		
CC(C)=C1CCC(C)(O)CC1 (centres unmarked) [γ-terpineol]		capable of triggering EAG responses	
C=C1CCC2CC1C2(C)C (stereo not drawn) [β-pinene]	only weak or no repellent activity at all	capable of triggering EAG responses	
CC(C)c1ccc(C=O)cc1 [cumin aldehyde]	only weak or no repellent activity at all	capable of triggering EAG responses	median repellency (%) at 20 nmol/cm2 ([1]; Anopheles gambiae, 2 min): 13.5%
CC1=CCC2CC1C2(C)C (stereo not drawn) [α-pinene]	only weak or no repellent activity at all	capable of triggering EAG responses	
limonene [(−) limonene]	only weak or no repellent activity at all		
CC1=CCC(C(C)C)=CC1 [γ-terpinene]	only weak or no repellent activity at all		
Cc1ccc(C(C)C)c(O)c1 [thymol, 2-Isopropyl-5-methylphenol]	activity comparable to DEET		median repellency (%) at 31.5 nmol/cm2 ([1]; Anopheles gambiae, 2 min, 31.5 nmole per cm^2): 89.7%
CC1=C(C=O)C(C)(C)CC=C1 [safranal]	only weak or no repellent activity at all	capable of triggering EAG responses	
C=C(C)[C@H]1CC=C(C)CC1 [(+) limonene, limonene]	only weak or no repellent activity at all		
C=C(C)[C@@H]1CC=C(C)C(=O)C1 [(−) carvone, carvone]	only weak or no repellent activity at all		
CC(C)c1ccc(C(=O)O)cc1 [cuminic acid]	activity comparable to DEET	capable of triggering EAG responses	median repellency (%) at 20 nmol/cm2 [1, 4]: 74.2%; Median of landings ([3]; 20 nmol/cm^2): 16; Median of landings ([3]; 200 nmol/cm^2): 13; repellence of sand flies from the warm body (in words) ([3]; 20 and 200 nmol/cm^2): as effective as DEET at 20 nmol/cm^2
C=C1CC/C=C(\C)CC[C@@H]2[C@@H]1CC2(C)C [β-caryophyllene]	only weak or no repellent activity at all	capable of triggering EAG responses	
C=CC(C)(O)CCC=C(C)C (centres unmarked) [linalool]	properties suggesting attractant activity	capable of triggering EAG responses	
COC(=O)C=Cc1ccccc1 [methyl-trans-cinnamate, methyl 3-phenylprop-2-enoate]	only weak or no repellent activity at all	capable of triggering EAG responses	median repellency (%) at 20 nmol/cm2 [1, 4]: 14%
Cc1ccc(C(C)C)cc1 [p-cymene]	properties suggesting attractant activity	capable of triggering EAG responses	
